According to US20250388597A1, “BIFUNCTIONAL PHOTOCROSSLINKING PROBES FOR COVALENT CAPTURE OF PROTEIN-NUCLEIC ACID COMPLEXES IN CELLS” (UNIVERSITY OF SOUTHERN CALIFORNIA, priority 2022, published 2025):
Entries after “also recorded” stand apart in the source; their conditions may differ.

How the values were obtained:
[1] = tested on: double stranded DNA and RNA; conditions: cited from earlier work; for efficiency of covalent crosslinking to DNA: long-wavelength (˜360 nm) UV illumination
MEF2A/DNA complex = biological target: T1, MEF2A/DNA complex (Homo sapiens, UniProt Q02078); assay: In vitro photo-crosslinking of assembled MEF2/DNA complex, read on denaturing SDS/urea gel or agarose gel; assay type: biochemical
T1 construct: human MEF2A DBD (residues 2-95); made in house
T1 sequence (Q02078 2-95): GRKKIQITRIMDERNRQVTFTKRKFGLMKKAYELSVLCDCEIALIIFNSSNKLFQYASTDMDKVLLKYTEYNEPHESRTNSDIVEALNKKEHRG
Source text: In vitro assays have confirmed the success and the efficiency of the demo probe (AMT-LC-SDA) in crosslinking double strand DNA of various contents and DNA-binding protein human myocyte enhancer factor 2A (MEF2A) (1-95 aa) (FIG. 5C-FIG. 5E). The solid crosslinking is confirmed for the probe with UV photo crosslinking conditions by denaturing or digestive approaches such as running with 8.3 M urea gel, SDS gel, combined with sample with overnight digestion of proteinase K at 65 Celsius and denatured at high temperature of 95 Celsius with SDS loading dye. […] Under these harsh evaluation conditions, the protein got digested on the crosslinking complex thoroughly, yet the remaining crosslinked amino acids residuals still have made the DNA to be in a larger size and shifted clearly compared to other controls, which is indicated by the bold shaped arrow. Agarose gel was also used for its bigger pore size to estimate the crosslinking efficiency (UV 2 hrs), estimated by the amount of the left free DNA, our probe has reached around 30-60% efficiency (FIG. 5E), which is much higher than the UV-initiated protein DNA crosslinking without the use of a probe (10-20%) as reported in Nature Communications, volume 11, Article number: 3019 (2020). […] This further supports the idea of applying this probe for replacement of formaldehyde, it crosslinks the protein only within the proximity of nucleic acids, thereby largely reducing the random protein-protein crosslinking noise and helps to preserve the native state of protein epitopes.
The BFPX probe 4AMT-LC-SDA was synthesized with good yield by the NHS-amine chemistry using psoralen and diazirine derivatives (FIG. 5A, FIG. 5B). To test its photo crosslinking ability, human transcription factor MEF2A (the MADS-box/MEF2 domain) and double strand DNA containing a MEF2 binding site were used. We first used electrophoresis mobility shift assay (EMSA) to validate the activity of the purified recombinant MEF2A DNA-binding domain. After finding out the optimal protein to DNA ratio, the in vitro assembled MEF2/DNA complex was then subject to photocrosslinking in the presence or absence of the 4AMT-LC-SDA probe with or without UV illumination. Multiple other control experiments were carried out in parallel to test the specificity of photocrosslinking between the DNA and MEF2. Specifically, parameters such as protein/DNA amounts (1:[…]), ratio, UV time (10 m to 4 hrs), wavelength (320 to 360 nm), LV source (mercury long lamp, LED) and their distance to the reaction mixture have been optimized along the course. The MEF2 Protein and DNA were incubated first to mimic an in vivo binding mode and stoichiometry, and then the mixture was incubated with our 4AMT-LC-SDA probe to undergo UV illumination. The results were evaluated by running denaturing gels (SDS in FIG. 5D, or Urea in FIG. 5C) against the high temperature denatured reaction mixtures and checking the respective protein (silver stain) or DNA (FAM label) signals. To further rule out any other possible false positiveness during loading, proteinase K digestion was applied to all the samples including the negative controls with SDS at 65 degrees.

NFAT1/DNA complex = biological target: T2, NFAT1/DNA complex (Homo sapiens, UniProt Q13469); assay: In vitro photo-crosslinking of assembled NFAT1/DNA complex, denaturing SDS gel; assay type: biochemical; conditions: for formation of covalent NFAT1/DNA crosslinked complex stable under denaturing SDS-PAGE: probe + UV 365 nm, 2% SDS, boil 10 min
T2 construct: human NFAT1 protein (residue 399-676, NFAT1-DBD)
T2 sequence (Q13469 399-676): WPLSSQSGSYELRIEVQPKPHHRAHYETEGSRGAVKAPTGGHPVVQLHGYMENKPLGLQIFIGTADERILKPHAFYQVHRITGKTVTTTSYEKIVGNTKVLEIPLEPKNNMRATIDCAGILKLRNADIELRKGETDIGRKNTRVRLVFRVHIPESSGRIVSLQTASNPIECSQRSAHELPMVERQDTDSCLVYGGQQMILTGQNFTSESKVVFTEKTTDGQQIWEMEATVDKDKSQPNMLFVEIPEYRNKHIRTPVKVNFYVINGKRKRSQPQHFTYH
Procedure: The probe binding and UV crosslinking were carried out as described in FIG. 5G and FIG. 7. The crosslinked complexes (lane 3 and lane 6) were further treated with DTT (100 mM, heat 50 degree C. for 30 min). The reaction mixtures were run on SDS gel and visualized by FAM fluorescence for DNA (top) and by Coomassie blue stain for protein (bottom) as described in FIG. 7. FIG. 7 depicts denaturing SDS gel analysis of covalent capture of in vitro assembled MEF2/DNA and NFAT1/DNA complexes by the BFPX probe, SPB-AAD. […] The protein/DNA complexes are incubated at room temperature for 30 min, and treated with various combination of BFPX probe (SPB-AAD) and UV illumination as described in FIG. 5G. […] The reaction mixtures were added SDS loading dye (2% SDS), boil for 10 min, and run on SDS gel (Bio-Rad Any Kd gradient gel). The same gel was visualized by FAM fluorescence for DNA (top) and by Coomassie blue stain for protein (bottom). FIG. 8C depicts denaturing SDS gel analysis of covalent capture of in vitro assembled MEF2/DNA and NFAT1/DNA complexes by the BFPX probe, SPB-PEG3-AAD. […] The reaction mixtures were run on SDS gel and visualized by FAM fluorescence for DNA (top) and by Coomassie blue stain for protein (bottom) as described in FIG. 7. […] Typically protein and DNA are mixed to bind at room temperature for 30 min, followed by addition of BFPX probes for an additional 15 min and then UV illumination. In the case of FA treatment, the reaction time is 10 min at room temperature and then quenched by 250 mM glycine. […] The UV illumination (as indicated by a positive sign) was carried out using a LED Chip (21.4 mm×21.4 mm, 365-370 nm, 30 Watt, sample distance 2 cm, exposure time 2-15 min at 4 degree C., here the exposure time is 15 min). […] The small amount of single stranded DNA is due to incomplete annealing. The higher smearing bands are most likely non-specific protein complexes. Neither of these experimental imperfections affected the main conclusion of this experiment because the double stranded-DNA bands and the specific NFAT-DNA complex bands (the middle sharp bands) are well defined and can be monitored without the interference of the other bands. […] The gel was visualized by Cy5 fluorescence for DNA. FIG. 12E depicts further characterization of BFPX crosslinking of NFAT1/DNA complexes using different DNA substrates and staining techniques. Two unlabeled DNA substrates containing a core NFAT-binding site and different flanking bases and sequence lengths ([…] ID NO: 4), 21 mer, c2: [NT] ID NO: 5), 16 mer) were used to bind the NFAT1-DBD as described in FIG. 12C. […] The reactions were then analyzed by SDS PAGE under denaturing condition as described in FIG. 12D. Because the DNA is unlabeled, the gel was stained using either cyanine-based dye (SYBR Safe) or Coomassie Blue stain (CB). […] The different size of the NFAT-c1DNA complexes (lane 2) and NFAT-c2DNA complexes (lane 4) was resolved by loading reactions of lane 2 (2a, 2b and 2c) and lane 4 (4a, 4b and 4c) as triplicates side-by-side on the same gel (lower panel) using either SYBR and CB stain. FIG. 12F depicts time course of BFPX crosslinking of NFAT1/DNA complexes. […] The reactions at different time points were then analyzed on SDS gel as described in FIG. 12D. […] When the UV exposure time is longer than 5 min, a significant amount of crosslinked NFAT-DNA complex can be formed with UV illumination without SPB-AAD.

p53/DNA complex = biological target: T3, p53/DNA complex (Homo sapiens, UniProt P04637); assay: BFPX crosslinking of p53/DNA complexes, SDS PAGE; assay type: biochemical; conditions: denaturing SDS PAGE; probes with UV; vs no-protein controls
T3 construct: the human tumor suppressor p53 DBD; made in house
Procedure: FIG. 12I depicts BFPX crosslinking of p53/DNA complexes. The binding reactions between the human tumor suppressor p53 DBD and a 37 mer Cy5 labeled DNA containing a consensus p53 tetramer binding site (5′-/5Cy5/-[…]-3′, (SEQ ID NO: 8)) were set up and treated with BFPX probes and UV illumination as described in FIG. 12C. The various treatment combinations were list above the gel. The reactions were then analyzed by SDS PAGE under denaturing condition as described in FIG. 12D. […] Because p53 bind this this DNA substrate as a tetramer, crosslinked p53/DNA complexes may contain one or more p53 protein molecules. While the monomeric p53/DNA complex appears to be the dominant crosslinked protein-DNA complexes, higher-molecule weight species were visible in SDS gel, which may correspond to crosslinked higher-order p53/DNA complex.

Nkx2.5/DNA complex = biological target: T4, Nkx2.5/DNA complex (Homo sapiens, UniProt P52952); assay: BFPX crosslinking of Nkx2.5/DNA complexes, SDS PAGE; assay type: biochemical; conditions: denaturing SDS PAGE; probes with UV
T4 construct: human Nkx2.5 DBD (the homeodomain); made in house
Procedure: FIG. 12H depicts BFPX crosslinking of Nkx2.5/DNA complexes. […] The various treatment combinations were list above the gel. The reactions were then analyzed by SDS PAGE under denaturing condition as described in FIG. 12D.

DNA binding by NFAT1 = biological target: T5, DNA binding by NFAT1 (Homo sapiens, UniProt Q13469); assay: Native EMSA of the effect on DNA binding by NFAT1; assay type: biochemical; conditions: FIG. 12C; increasing concentrations; probes with UV 365 nm 15 min; compared to control lane 3
T5 construct: human NFAT1 protein (residue 399-676, NFAT1-DBD)
T5 sequence (Q13469 399-676): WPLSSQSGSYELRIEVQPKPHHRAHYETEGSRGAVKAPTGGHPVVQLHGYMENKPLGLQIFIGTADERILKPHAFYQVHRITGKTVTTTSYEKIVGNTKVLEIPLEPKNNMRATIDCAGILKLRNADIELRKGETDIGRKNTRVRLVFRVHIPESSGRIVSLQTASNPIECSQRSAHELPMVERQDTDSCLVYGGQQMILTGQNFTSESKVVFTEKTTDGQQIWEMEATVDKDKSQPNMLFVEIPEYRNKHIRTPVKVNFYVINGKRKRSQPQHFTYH
Procedure: All binding reactions contain 10 μM 27 mer dsDNA (5′6-FAM labeled) with a NFAT-binding site, and various combinations of NFAT1 protein (14 μM), FA (1% v/v), 4AMT-LC-SDA (20 μM), with or without UV illumination (365 nm, LED, 30 Watt, sample distance 2 cm, exposure time 15 min at 4 degree C.). 10 μl of the binding reaction is run on a 10% PAGE 0.5×TBE gel. The same gel was visualized by FAM fluorescence for DNA (top) and by Coomassie blue stain for protein (bottom). The higher smearing bands in lane 3, 8, 9, and 10 are most likely non-specific protein complexes often seen when an excessive amount of protein is used to ensure all DNA is bound.
The binding reactions were performed in a buffer of 20 mM Hepes pH 7.6, 150 mM NaCl, 1 mM DTT, 12% glycerol. Typically protein and DNA are mixed to bind at room temperature for 30 min, followed by addition of BFPX probes for an additional 15 min and then UV illumination. In the case of FA treatment, the reaction time is 10 min at room temperature and then quenched by 250 mM glycine. When included (as indicated by a positive sign), the binding reaction contains 10 μM 27 mer dsDNA (Cy5-labeled) with a NFAT-binding site (the antigen receptor response element 2, ARRE2, from the IL-2 promoter, 5′-Cy5-[sequence]-3′ (SEQ ID NO: 2), the complementary strand is not labeled), 24 μM of the DNA binding domain (DBD) of human NFAT1 protein (residue 399-676, NFAT1-DBD). The UV illumination (as indicated by a positive sign) was carried out using a LED Chip (21.4 mm×21.4 mm, 365-370 nm, 30 Watt, sample distance 2 cm, exposure time 2-15 min at 4 degree C., here the exposure time is 15 min). Half of the binding reaction (7.5 μl) was run on a 10% PAGE 0.5×TBE gel and visualized by Cy5 fluorescence on DNA. The small amount of single stranded DNA is due to incomplete annealing. The higher smearing bands are most likely non-specific protein complexes. Neither of these experimental imperfections affected the main conclusion of this experiment because the double stranded-DNA bands and the specific NFAT-DNA complex bands (the middle sharp bands) are well defined and can be monitored without the interference of the other bands.
The presence of both DNA and protein in the same shifted band can be checked by the FAM fluorescence signal (top) and Coomassie stain (bottom), respectively (free NFAT is positively charged and not observable under the EMSA condition).

NFAT1 DNA binding domain = biological target: T6, NFAT1 DNA binding domain (Homo sapiens, UniProt Q13469 Q13469:399-676); assay: SPB-AAD 100 uM + UV365 photocrosslinking, SDS-PAGE
T6 sequence: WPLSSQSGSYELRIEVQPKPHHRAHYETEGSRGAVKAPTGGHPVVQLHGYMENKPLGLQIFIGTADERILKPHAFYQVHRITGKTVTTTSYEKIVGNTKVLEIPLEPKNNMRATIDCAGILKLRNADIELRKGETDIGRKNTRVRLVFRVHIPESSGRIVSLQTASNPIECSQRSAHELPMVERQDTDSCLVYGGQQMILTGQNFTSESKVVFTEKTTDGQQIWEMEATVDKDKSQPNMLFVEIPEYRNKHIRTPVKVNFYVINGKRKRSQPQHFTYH
Procedure: The UV illumination (as indicated by a positive sign) was carried out using a LED Chip (21.4 mm×21.4 mm, 365-370 nm, 30 Watt, sample distance 2 cm, exposure time 2-15 min at 4 degree C., here the exposure time is 15 min). Half of the binding reaction (7.5 μl) was run on a 10% PAGE 0.5×TBE gel and visualized by Cy5 fluorescence on DNA. The small amount of single stranded DNA is due to incomplete annealing. The higher smearing bands are most likely non-specific protein complexes. Neither of these experimental imperfections affected the main conclusion of this experiment because the double stranded-DNA bands and the specific NFAT-DNA complex bands (the middle sharp bands) are well defined and can be monitored without the interference of the other bands.
FIG. 12D depicts the other half of binding reaction from the above experiments (FIG. 12C) were added SDS loading dye (2% SDS), boil for 10 min, and run on SDS gel (4-15% gradient gel). The gel was visualized by Cy5 fluorescence for DNA.
FIG. 12E depicts further characterization of BFPX crosslinking of NFAT1/DNA complexes using different DNA substrates and staining techniques. […] The reactions were then analyzed by SDS PAGE under denaturing condition as described in FIG. 12D. […]

T3 sequence (P04637 102-292 limits assumed, one chain of several): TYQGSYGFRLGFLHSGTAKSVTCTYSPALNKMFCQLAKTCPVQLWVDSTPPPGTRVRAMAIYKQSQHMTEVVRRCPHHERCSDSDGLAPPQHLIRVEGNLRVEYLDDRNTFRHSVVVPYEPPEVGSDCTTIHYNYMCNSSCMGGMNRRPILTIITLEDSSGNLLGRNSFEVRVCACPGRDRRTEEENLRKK
T4 sequence (P52952 138-197 limits assumed, one chain of several): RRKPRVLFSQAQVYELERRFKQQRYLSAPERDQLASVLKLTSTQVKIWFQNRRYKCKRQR

## Cc1oc2c(C)c3oc(=O)cc(C)c3cc2c1CN [4AMT, 4′-aminomethyltrioxsalen]
[1]
  efficiency of covalent crosslinking to DNA: up to 80%

## Cc1oc2c(C)c3oc(=O)cc(C)c3cc2c1CNC(=O)CCSSCCNC(=O)CCC1(C)N=N1 [4AMT-SDAD]
MEF2A/DNA complex; probe 10-100 μM, UV 15 min, 200 mM TCEP at 37° C. overnight
  release of crosslinked MEF2/DNA complexes by reductive cleavage: can be released by reductive cleavage of the disulfide bond
MEF2A/DNA complex; probe + UV, denaturing gel
  formation of covalent MEF2/DNA crosslinked complex: highly efficient crosslinking
NFAT1/DNA complex; 25 μM probe, DTT 100 mM, 50 degree C., 30 min, FIG. 5H
  effect of DTT treatment on the crosslinked NFAT-DNA complex: reduced significantly
NFAT1/DNA complex; listed as 4AMT-LC-SDAD
  formation of covalent NFAT1/DNA crosslinked complex stable under denaturing SDS-PAGE: highly efficient crosslinking; also recorded: crosslinked NFAT to its DNA substrate efficiently

## O=c1ccc2cc3ccoc3cc2o1 [Psoralen, psoralen]
[1]
  affinity for double stranded DNA and RNA: μM (Kd) affinity
  efficiency of covalent crosslinking to DNA: up to 80%

## CC1(CCC(=O)NCCCCCC(=O)NCCCCNCCCNC(=O)CCCOc2c3occc3cc3ccc(=O)oc23)N=N1 [SPB-Spermidine-AD, 6-(3-(3-methyl-3H-diazirin-3-yl)propanamido)-N-(4-((3-(4-((7-oxo-7H-furo[3,2-g]chromen-9-yl)oxy)butanamido)propyl)amino)butyl)hexanamide]
NFAT1/DNA complex
  apparent crosslinking efficiency (intensity of the complex band over the total DNA intensity): 22.5%
  crosslinking efficiency normalized against the total protein/DNA complex: ~47%
  formation of covalent NFAT1/DNA crosslinked complex stable under denaturing SDS-PAGE: dosage dependent crosslinking of NFAT1/DNA complexes
p53/DNA complex
  crosslinking of the p53/DNA complex: significant crosslinking of the p53/DNA complex
Nkx2.5/DNA complex
  crosslinking of the Nkx2.5/DNA complex: significant crosslinking of the Nkx2.5/DNA complex
DNA binding by NFAT1
  effect on the binding of NFAT1 to DNA: little or no effect

B1: c1 NFAT 21-mer (dsDNA)
DNA 1: TTCCACAGAGGAAAATTTGTT
DNA 2: AACAAATTTTCCTCTGTGGAA
NFAT1 DNA binding domain
  binding result: binds
